Laboratory results published in patent US11053204B2, “Pyrimidinyloxy benzene derivatives as herbicides” (FMC Corporation, priority 2015, dated 2021).

Key:
Type in all cases: in vivo
[1] = system: Italian ryegrass (Lolium multiflorum); assay: Test A preemergence, visual injury rating
How it was run: (§1)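 Visual 0–100 rating (100 = complete control) taken about 10 d post-treatment relative to untreated checks. Preemergence: directed soil spray on sown loam/sand pots. Postemergence: seedlings 2–10 cm, 1–2 leaf. Non-phytotoxic solvent formulation with surfactant.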

[2] = system: barnyardgrass (Echinochloa crus-galli); assay: Test A preemergence, visual injury rating
How it was run: as §1

[3] = system: giant foxtail (Setaria faberii); assay: Test A preemergence, visual injury rating
How it was run: as §1

kochia (Kochia scoparia) [4] = assay: Test A preemergence, visual injury rating
How it was run: as §1

[5] = system: pigweed (Amaranthus retroflexus); assay: Test A preemergence, visual injury rating
How it was run: as §1

[6] = system: ragweed (common ragweed, Ambrosia elatior); assay: Test A preemergence, visual injury rating
How it was run: as §1

[7] = system: Italian ryegrass (Lolium multiflorum); assay: Test A postemergence, visual injury rating
How it was run: as §1

[8] = system: barnyardgrass (Echinochloa crus-galli); assay: Test A postemergence, visual injury rating; conditions: 0 to 100 scale, 0 is no effect, 100 is complete control, approximately 10 days
How it was run: as §1

[9] = system: blackgrass (Alopecurus myosuroides); assay: Test A postemergence, visual injury rating
How it was run: as §1

corn (Zea mays) = assay: Test A postemergence, visual injury rating
How it was run: as §1

[10] = system: galium (catchweed bedstraw, Galium aparine); assay: Test A postemergence, visual injury rating
How it was run: as §1

[11] = system: giant foxtail (Setaria faberii); assay: Test A postemergence, visual injury rating
How it was run: as §1

kochia (Kochia scoparia) [12] = assay: Test A postemergence, visual injury rating
How it was run: as §1

[13] = system: pigweed (Amaranthus retroflexus); assay: Test A postemergence, visual injury rating
How it was run: as §1

[14] = system: ragweed (common ragweed, Ambrosia elatior); assay: Test A postemergence, visual injury rating
How it was run: as §1

[15] = system: wheat (Triticum aestivum); assay: Test A postemergence, visual injury rating
How it was run: as §1

[16] = system: barnyardgrass (Echinochloa crus-galli); assay: Test B flooded paddy test, plant response rating; conditions: 250 g ai/ha; Flood; scale of 0 to 100 where 0 is no effect and 100 is complete control; 13 to 15 days
How it was run: (§2)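 Under a constant 3 cm flood, test compounds went directly into the paddy water. Following 13 to 15 days of greenhouse growth, treated species and controls were compared by eye.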

[17] = system: ducksalad (Heteranthera limosa); assay: Test B flooded paddy test, plant response rating; conditions: 250 g ai/ha; Flood; scale of 0 to 100 where 0 is no effect and 100 is complete control; 13 to 15 days
How it was run: as §2

rice (Oryza sativa) = assay: Test B flooded paddy test, plant response rating; conditions: 250 g ai/ha; Flood; scale of 0 to 100 where 0 is no effect and 100 is complete control; 13 to 15 days
How it was run: as §2

[18] = system: sedge, umbrella (small-flower umbrella sedge, Cyperus difformis); assay: Test B flooded paddy test, plant response rating; conditions: 250 g ai/ha; Flood; scale of 0 to 100 where 0 is no effect and 100 is complete control; 13 to 15 days
How it was run: as §2

[19] = 31 g ai/ha, 0 to 100 scale, 0 no effect, 100 complete control
[20] = 125 g ai/ha, 0 to 100 scale (0 no effect, 100 complete control)
[21] = 31 g ai/ha, 0 to 100 scale (0 no effect, 100 complete control)
[22] = 125 g ai/ha, 0 to 100 scale, 0 is no effect, 100 is complete control, approximately 10 days

| Compound | Plant response rating, Ryegrass, Italian [1, 19] | Plant response rating, Ryegrass, Italian [1, 20] | Plant response rating, Barnyardgrass [2, 19] | Plant response rating, Barnyardgrass [2, 20] | Plant response rating, Foxtail, Giant [3, 19] | Plant response rating, Foxtail, Giant [3, 20] | Plant response rating, Kochia (kochia (Kochia scoparia) [4]; [19]) | Plant response rating, Kochia (kochia (Kochia scoparia) [4]; [20]) | Plant response rating, Pigweed [5, 19] | Plant response rating, Pigweed [5, 20] | Plant response rating, Ragweed [6, 19] | Plant response rating, Ragweed [6, 20] | Ryegrass, Italian plant response rating [7, 21] | Ryegrass, Italian plant response rating [7, 22] | Barnyardgrass plant response rating ([8]; 31 g ai/ha) | Barnyardgrass plant response rating ([8]; 125 g ai/ha) | Blackgrass plant response rating [9, 21] | Blackgrass plant response rating [9, 22] | Corn plant response rating (corn (Zea mays); [21]) | Corn plant response rating (corn (Zea mays); [22]) | also measured |
| --- | --- | --- | --- | --- | --- | --- | --- | --- | --- | --- | --- | --- | --- | --- | --- | --- | --- | --- | --- | --- | --- |
| N#Cc1cccc(Oc2ncc(Cl)cn2)c1C(=O)CCCC(F)(F)F [Compound 133] | 0 | 0 | 0 | 30 | 0 | 90 | 0 | 10 | 70 | 100 | 0 | 0 | 0 | 0 | 10 | 30 | 0 | 0 | 0 | 20 | Galium plant response rating [10, 21]: 30; Galium plant response rating [10, 22]: 50; Foxtail, Giant plant response rating [11, 21]: 10; Foxtail, Giant plant response rating [11, 22]: 30; Kochia plant response rating (kochia (Kochia scoparia) [12]; [21]): 0; Kochia plant response rating (kochia (Kochia scoparia) [12]; [22]): 20; Pigweed plant response rating [13, 21]: 30; Pigweed plant response rating [13, 22]: 50; Ragweed plant response rating [14, 21]: 0; Ragweed plant response rating [14, 22]: 0; Wheat plant response rating [15, 21]: 0; Wheat plant response rating [15, 22]: 0; Plant response rating, Barnyardgrass [16]: 0; Plant response rating, Ducksalad [17]: 0; Plant response rating, Rice (rice (Oryza sativa)): 30; Plant response rating, Sedge, Umbrella [18]: 0 |
| CCc1cccc(Oc2ncc(Cl)cn2)c1CCCCC(F)(F)F [Compound 134] | 0 | 20 | 0 | 80 | 10 | 90 | 0 | 10 | 0 | 50 | 0 | 0 | 0 | 10 | 0 | 20 | 10 | 20 | 10 | 10 | Galium plant response rating [10, 21]: 10; Galium plant response rating [10, 22]: 40; Foxtail, Giant plant response rating [11, 21]: 10; Foxtail, Giant plant response rating [11, 22]: 20; Kochia plant response rating (kochia (Kochia scoparia) [12]; [21]): 20; Kochia plant response rating (kochia (Kochia scoparia) [12]; [22]): 60; Pigweed plant response rating [13, 21]: 40; Pigweed plant response rating [13, 22]: 80; Ragweed plant response rating [14, 21]: 0; Ragweed plant response rating [14, 22]: 10; Wheat plant response rating [15, 21]: 0; Wheat plant response rating [15, 22]: 10; Plant response rating, Barnyardgrass [16]: 0; Plant response rating, Ducksalad [17]: 95; Plant response rating, Rice (rice (Oryza sativa)): 20; Plant response rating, Sedge, Umbrella [18]: 95 |
